The record followed here is ChEMBL document CHEMBL4251631, “New antiglioma zwitterionic pronucleotides with an FdUMP framework” (Eur J Med Chem, 2018).

Usually IC50 stands for the concentration that gives 50% inhibition. Broadly, the half-life is the time needed for the level to fall by half in the phase considered. A lower half-life goes with fast loss.

The subject of series [1] is U-87 MG. In words: Cytostatic activity against human U87MG cells assessed as reduction in cell viability after 48 hrs by MTT assay. Type of series: functional, cell-based, U-87MG ATCC.
The test system of series [2] is U-118-MG. In words: Cytostatic activity against human U118MG cells assessed as reduction in cell viability after 48 hrs by MTT assay. Type of series: functional, cell-based. Background: Tetrazolium assays rely on reduction of a dye to a coloured formazan, in cell work by metabolically active cells.
In series [3] the test system is MRC5. In words: Cytostatic activity against human MRC5 cells assessed as reduction in cell viability after 48 hrs by MTT assay. Type of series: functional, cell-based. Particulars: MRC5, 48 h.
Series [4] deals with T98G. In words: Cytostatic activity against human T98G cells assessed as reduction in cell viability after 48 hrs by MTT assay. Type of series: functional, cell-based.
Series [5] can be described thus: Half life in RPMI/FBS cell culture media 9:1 (v/v) at 2 mM by HPLC analysis. Type of series: physicochemical. Particulars: cattle.
For series [6], the system named is T47D. The experiment in a line: Cytostatic activity against human T47D cells assessed as reduction in cell viability after 48 hrs by MTT assay. Type of series: functional, cell-based.
Series [7] has as its system Caco-2. The experiment in a line: Cytostatic activity against human Caco2 cells assessed as reduction in cell viability after 48 hrs by MTT assay. Type of series: functional, cell-based. Particulars: Caco-2, 48 h.
The nature of series [8]: Stability in RPMI cell culture media at 2 mM by HPLC analysis. Type of series: physicochemical. Particulars: 2000 µM.
The nature of series [9]: Selectivity index, ratio of IC50 for human MRC5 cells to IC50 for human U118MG cells. Type of series: toxicity. Particulars: MRC5 cells and U118MG cells, read-out: Ratio IC50.
Series [10] can be described thus: Selectivity index, ratio of IC50 for human MRC5 cells to IC50 for human T98G cells. Type of series: toxicity. The following applies: MRC5 cells and T98G cells, read-out: Ratio IC50.
Series [11] relates to HeLa. The experiment in a line: Cytostatic activity against human HeLa cells assessed as reduction in cell viability after 48 hrs by MTT assay. Type of series: functional, cell-based.
Series [12] can be described thus: Half life in human serum at 2 mM by HPLC analysis. Type of series: ADME, cell-free.
A short description of series [13]: Selectivity index, ratio of IC50 for human MRC5 cells to IC50 for human U87MG cells. Type of series: toxicity. Particulars: MRC5 cells and U87MG cells, read-out: Ratio IC50.

Regarding `Oc1ccc[n+](Cc2ccccc2)c1`, the IC50 in series [1], in series [2], in [3] and in series [4] was above 200 µM each time.

Turning to `Oc1cccnc1`, the IC50 in series [1], in series [2], in [3] and in [4] was above 500 µM throughout.

`C[n+]1cccc(OP(=O)([O-])OC[C@H]2O[C@@H](n3cc(F)c(=O)[nH]c3=O)C[C@@H]2OC(=O)c2ccccc2)c1`: the IC50 in series [1] was 0.59 µM; in series [6], 3.91 µM; in series [7], 1.38 µM; in series [2] it was 3.15 µM; in series [11], 1.26 µM; in [3], 5.75 µM. Moreover, the IC50 in series [4] was 3.48 µM. Moreover, the half-life at 2000 µM is 14.8 h in series [5] and 37.3 h in series [12]. The Stability result in [8] is listed as “Stable”. Also, the selectivity ratio in series [9] came out at 2; in series [10] it was 2; in [13], 10.

`O=C(O[C@H]1C[C@H](n2cc(F)c(=O)[nH]c2=O)O[C@@H]1COP(=O)([O-])Oc1ccc[n+](Cc2ccccc2)c1)c1ccccc1`: the IC50 in series [1] is 0.66 µM; in series [6] it was 3.43 µM; in series [7], 0.43 µM; in [2], 1.47 µM; in series [11] it was 0.53 µM; in [3], 38.5 µM. The IC50 in series [4] is 2.6 µM. Further, the half-life at 2000 µM in series [5] is 10.8 h; in series [12], 14.4 h. The Stability entry in [8] was “Stable”. For the same compound, the selectivity ratio in series [9] is 26; in series [10] it was 15; in series [13], 58.

As for `CCOC(=O)C[n+]1cccc2cc(O)ccc21`, the IC50 in series [1] was above 200 µM; in series [2], above 200 µM; in series [3] it was 162 µM; in [4], above 200 µM.

With `CCCCCCCCCC[n+]1cccc(OP(=O)([O-])OC[C@H]2O[C@@H](n3cc(F)c(=O)[nH]c3=O)C[C@@H]2OC(=O)c2ccccc2)c1`, the IC50 came out at 0.67 µM in series [1]; 8.73 µM in series [6]; 12.9 µM in series [7]; 0.32 µM in series [2]; 1.2 µM in series [11]; 14.1 µM in series [3]. Also, the IC50 in [4] amounted to 0.4 µM. Further, the results for the half-life at 2000 µM in [5] and in series [12] were 16.5 h and 8.3 h, respectively. For the same compound, in series [8], the Stability result is recorded as “Stable”. Also, the figures for the selectivity ratio in [9], in [10] and in series [13] were 44, 35 and 21, respectively.

In the case of `CCOC(=O)C[n+]1cccc(O)c1`, the IC50 in series [1], in [2], in series [3] and in series [4] was above 200 µM in each case.

In the case of `CCCCCCCCCC[n+]1cccc(O)c1`, the IC50 was 158 µM in series [1], 125 µM in [2], 126 µM in series [3] and 55.6 µM in [4].

For `C[N+](C)(C)CCOP(=O)([O-])OC[C@H]1O[C@@H](n2cc(F)c(=O)[nH]c2=O)C[C@@H]1OC(=O)c1ccccc1`, the IC50 in series [1] was 1.79 µM; in [6] it was 39.6 µM; in [7], 8.12 µM; in series [2], 7.54 µM; in series [11], 3.6 µM; in [3], 1.3 µM. In series [4], the IC50 is 24.7 µM. Further, the half-life at 2000 µM in series [5] was 20 h; in series [12], 116 h. Moreover, the Stability entry in [8] is on record as “Stable”. Moreover, the selectivity ratio in series [9], in series [10] and in series [13] was below 1 throughout.
